From US6348477B1, “Anti-herpesvirus compounds and methods for identifying, making and using same” (Boehringer Ingelheim(Canada) Ltd., priority 1995, dated 2002)

What was measured:
HCMV (strain AD169) [1] = test: Inhibition of HCMV replication, plaque reduction assay (PRA, Hs-68 cells); type: cell-based, human cytomegalovirus; conditions: Group 1 Table 1, read-out: PRA CMV EC50
Description: (§1) C) Inhibition of Human Cytomegalovirus (HCMV) replication
(§2) The effect of compounds on the replication of HCMV has been measured by using an ELISA-based assay (ELISA) and a plaque reduction assay (PRA).
Hs-68 cells ( ATCC # CRL 1635) were seeded in 12-well plates at 83,000 cells/well in 1 mL of DMEM medium (Gibco Canada Inc.) supplemented with 10% fetal bovine serum (FBS, Gibco Canada Inc.). The plates were incubated for 3 days at 37° to allow the cells to reach 80-90% confluency prior to the assay.
The medium was removed from the cells by aspiration. The cells were then infected with approximately 50 PFU of HCMV (strain AD169, ATCC VR-538) in DMEM medium supplemented with 5% inactivated FBS (assay medium). The virus was allowed to adsorb to cells for 2 h at 37°. Following viral adsorption, the medium was removed from the wells by aspiration. The cells were then incubated with or without 1 mL of appropriate concentrations of test reagent in assay medium. After 4 days of incubation at 37°, the medium was exchanged with fresh medium containing test compound and 4 days later the cells were fixed with 1% aqueous formaldehyde and stained with a 2% crystal violet solution in 20% ethanol in water. Microscopic plaques were counted using a stereomicroscope. Drug effects were calculated as a percent reduction in the number of plaques in the presence of each drug concentration compared to the number observed in the absence of drug. Ganciclovir was used as a positive control in all experiments.
The EC50 values obtained according to this assay for certain thiazolyl derivatives of this invention are listed in the following tables under the heading PRA CMV.

HCMV (strain AD169) [2] = test: Inhibition of HCMV replication, ELISA assay (Hs-68 cells, p28); type: cell-based, human cytomegalovirus; conditions: Human betaherpesvirus 5, AD169, Hs68; Group 1 Table 1; read-out: ELISA CMV EC50
Description: as §1, §2
Hs-68 cells (ATCC # CRL 1635) were seeded in 96 well microtiter plates at 10,000 cells/well in 100 μL of DMEM medium (Gibco Canada Inc.) supplemented with 10% fetal bovine serum (FBS, Gibco Canada Inc.). The plates were incubated for 3 days at 37° to allow the cells to reach 80-90% confluency prior to the assay.
The medium was removed from wells by aspiration. The cells then were infected at a multiplicity of infection (MOI) of 0.01 PFU/cell with 50 μL of HCMV (strain AD169, ATCC VR-538) in DMEM medium supplemented with 5% heat inactivated FBS (assay medium). The virus was allowed to adsorb to cells for 2 h at 37°. Following viral adsorption, the medium was removed from the wells by aspiration. The cells were washed twice with 200 μL of assay medium to remove unabsorbed virus. The cells were then incubated with or without 100 μL of appropriate concentrations of test reagent in assay medium. After 8 days of incubation at 37°, the extent of viral replication was determined by an ELISA assay which detects the late structural protein p28 of HCMV.
Eight days after infection, the medium was aspirated from the wells. Non-specific binding sites were blocked by adding 200 μL of phosphate buffered saline containing 1% (w/v) bovine serum albumin (blocking buffer) to each well and incubating the plates for 30 min at room temperature. After removal of the blocking buffer by aspiration, the cells were fixed with 100 μL of cold ethanol-acetone solution (95:5) per well. The plates were placed at −20° for 30 min. The plates were washed 4 times with phosphate buffered saline containing 0.05% (v/v) polyoxyethylene sorbitan monolaurate (Tween 20®). Thereafter, 100 μL of mAb UL99 (Advanced Biotechnologies Inc., #13-130-100) recognizing HCMV protein p28 was added to each wells and plates were incubated for 2 h at room temperature. The plates were washed four times with 200 μL of the above-noted phosphate buffered saline/Tween-20® solution. The cells were then incubated with 100 μL of sheep anti-mouse IgGγ horseradish peroxidase conjugated for 2 h at room temperature. The plates were then washed four times with 200 μL of above-noted phosphate buffered saline/Tween-20®solution. Thereafter, 100 μL of ortho phenylenediamine dihydrochloride (OPD, Gibco Canada Inc.) solution was added to each well and the plates were agitated on a microplate shaker for 30 min in the dark. Color development was monitored at 450 nm using a microplate spectrophotometer.
The SAS program was used to calculate the % inhibition of viral replication and to generate EC50 values.
The EC50 values obtained according to this assay method for certain thiazolylphenyl derivatives of this invention are listed in the following tables under the heading ELISA CMV.

HSV-1 helicase-primase = molecular target: T1, HSV-1 helicase-primase (Human herpesvirus 1, UniProt P10189+P10236); test: HSV-1 DNA-dependent ATPase assay (inhibition of HSV-1 helicase-primase); type: biochemical; conditions: Group 1 Table 1
T1 construct: made in house; host or cells: Sf21 insect cells triply infected with recombinant baculoviruses
Description: A) HSV-1 DNA-Dependent ATP Assay (an in Vitro Assay Based on the Inhibition of HSV-1 Helicase-primase).
a) Preparation of enzyme: HSV-1 helicase-primase holoenzyme was produced in triply infected Sf21 cells using recombinant baculoviruses expressing the UL5, UL8 and UL52 helicase-primase subunits, as described by S. Dracheva et al., J. Biol. Chem. 1995, 270, 14148. The crude enzyme was purified by ammonium sulfate precipitation, Source 15Q® chromatography and Sephacryl® S-300 HR gel filtration (both purification systems can be obtained from Pharmacia Biotech Inc., Montreal, Quebec, Canada), see S. Dracheva et al., supra.
b) Assay: The DNA-dependent ATPase assay, described by J. J. Crute et al., Nucleic Acids Res. 1988, 16, 6585, was modified and used to evaluate the capability of the compounds of Group 1-formula 1 to inhibit HSV-1 helicase-primase activity. The reaction mixtures (80 μL each) contained 40 mM 4-(2-hydroxyethyl)-1-piperazineethanesulfonic acid (HEPES, pH 7.5), 10% (v/v) glycerol, 5.5 mM MgCl2, 1 mM DL-dithiothreitol (DTT), 50 μg/mL acetylated bovine serum albumin, 3.3% (v/v) DMSO, 4 mM ATP, 25 μM single-stranded M13 DNA hybridized to double-tailed 68-mer oligonucleotide and 3 μg/mL HSV-1 helicase-primase. After incubation for 20 min at 34°, formation of inorganic phosphate from hydrolysis of ATP was monitored spectrophotometrically at 650 nm using acidic ammonium molybdate/malachite green reagent, P. A. Lanzetta et al., Anal. Biochem. 1979, 100, 95. DNA-dependent ATPase activity was calculated from the net absorbance change in the presence and absence of inhibition.

[3] = Human betaherpesvirus 5, AD169, Hs68

T1 sequence (P10189 whole entry): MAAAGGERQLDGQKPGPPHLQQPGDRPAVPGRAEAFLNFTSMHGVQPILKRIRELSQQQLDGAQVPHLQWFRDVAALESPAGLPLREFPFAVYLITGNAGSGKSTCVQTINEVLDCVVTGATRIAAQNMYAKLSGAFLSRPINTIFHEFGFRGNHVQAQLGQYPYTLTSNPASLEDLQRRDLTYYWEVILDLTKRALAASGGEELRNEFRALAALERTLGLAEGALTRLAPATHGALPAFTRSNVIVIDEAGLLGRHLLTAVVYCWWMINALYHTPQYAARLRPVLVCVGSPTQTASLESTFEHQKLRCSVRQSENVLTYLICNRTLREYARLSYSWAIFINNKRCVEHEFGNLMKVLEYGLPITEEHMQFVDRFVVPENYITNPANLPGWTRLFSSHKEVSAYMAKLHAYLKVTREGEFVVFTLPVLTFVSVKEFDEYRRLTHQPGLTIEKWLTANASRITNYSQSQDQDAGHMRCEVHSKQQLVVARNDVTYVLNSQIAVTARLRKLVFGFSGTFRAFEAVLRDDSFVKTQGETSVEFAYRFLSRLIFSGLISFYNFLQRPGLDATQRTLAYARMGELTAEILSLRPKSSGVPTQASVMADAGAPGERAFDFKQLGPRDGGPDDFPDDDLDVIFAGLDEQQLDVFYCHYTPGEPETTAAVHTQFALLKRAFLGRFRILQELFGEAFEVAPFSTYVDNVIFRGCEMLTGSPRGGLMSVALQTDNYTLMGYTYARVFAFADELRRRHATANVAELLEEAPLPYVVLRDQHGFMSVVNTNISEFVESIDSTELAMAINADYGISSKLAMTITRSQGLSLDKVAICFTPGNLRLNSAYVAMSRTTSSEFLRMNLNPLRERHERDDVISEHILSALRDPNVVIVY
T1 sequence (P10192 whole entry, further chain): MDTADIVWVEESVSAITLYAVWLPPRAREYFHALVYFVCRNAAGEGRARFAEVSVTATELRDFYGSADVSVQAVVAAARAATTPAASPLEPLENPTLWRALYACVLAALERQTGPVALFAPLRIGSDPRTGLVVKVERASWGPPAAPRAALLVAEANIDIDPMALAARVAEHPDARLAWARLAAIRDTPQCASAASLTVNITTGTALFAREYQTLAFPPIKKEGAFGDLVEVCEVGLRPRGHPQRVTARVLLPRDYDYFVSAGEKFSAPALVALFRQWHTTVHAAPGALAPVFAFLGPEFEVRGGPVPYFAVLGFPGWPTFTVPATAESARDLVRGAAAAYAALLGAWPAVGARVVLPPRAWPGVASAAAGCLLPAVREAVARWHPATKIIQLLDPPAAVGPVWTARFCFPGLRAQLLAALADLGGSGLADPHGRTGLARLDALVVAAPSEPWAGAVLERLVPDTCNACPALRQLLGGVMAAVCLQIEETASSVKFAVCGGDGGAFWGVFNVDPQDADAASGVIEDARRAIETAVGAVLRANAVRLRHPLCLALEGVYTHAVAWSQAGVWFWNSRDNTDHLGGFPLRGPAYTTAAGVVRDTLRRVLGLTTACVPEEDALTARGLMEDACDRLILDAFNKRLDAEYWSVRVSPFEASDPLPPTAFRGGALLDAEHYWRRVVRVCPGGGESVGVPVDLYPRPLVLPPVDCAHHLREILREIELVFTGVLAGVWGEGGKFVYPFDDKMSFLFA
T1 sequence (P10236 whole entry): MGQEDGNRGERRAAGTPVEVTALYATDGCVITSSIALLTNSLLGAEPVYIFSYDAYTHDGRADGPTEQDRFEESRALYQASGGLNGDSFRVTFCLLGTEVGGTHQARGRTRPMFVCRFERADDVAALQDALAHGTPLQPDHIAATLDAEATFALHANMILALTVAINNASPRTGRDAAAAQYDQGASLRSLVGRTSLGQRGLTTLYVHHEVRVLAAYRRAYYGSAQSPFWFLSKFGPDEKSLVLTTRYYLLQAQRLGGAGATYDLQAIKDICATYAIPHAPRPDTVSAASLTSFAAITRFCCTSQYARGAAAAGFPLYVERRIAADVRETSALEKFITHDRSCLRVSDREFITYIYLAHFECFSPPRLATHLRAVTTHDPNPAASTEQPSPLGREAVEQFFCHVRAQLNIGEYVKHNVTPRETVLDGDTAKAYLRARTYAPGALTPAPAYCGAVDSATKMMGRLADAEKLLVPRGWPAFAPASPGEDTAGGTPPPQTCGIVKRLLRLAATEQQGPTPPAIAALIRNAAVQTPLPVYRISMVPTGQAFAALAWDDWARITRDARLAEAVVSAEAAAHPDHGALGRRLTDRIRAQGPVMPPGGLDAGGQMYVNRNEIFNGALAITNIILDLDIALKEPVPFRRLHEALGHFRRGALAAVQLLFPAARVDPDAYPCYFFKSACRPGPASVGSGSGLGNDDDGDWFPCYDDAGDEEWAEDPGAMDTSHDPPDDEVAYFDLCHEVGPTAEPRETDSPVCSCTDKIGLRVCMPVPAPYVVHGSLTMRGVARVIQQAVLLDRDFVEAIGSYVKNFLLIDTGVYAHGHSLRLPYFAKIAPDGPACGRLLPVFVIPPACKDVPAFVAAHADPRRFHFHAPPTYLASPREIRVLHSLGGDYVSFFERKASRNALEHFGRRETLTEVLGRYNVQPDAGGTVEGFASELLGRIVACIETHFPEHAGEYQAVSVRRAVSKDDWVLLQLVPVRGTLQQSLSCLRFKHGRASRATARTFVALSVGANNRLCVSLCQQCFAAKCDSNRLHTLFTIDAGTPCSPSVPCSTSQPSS

| Compound | EC50 (HCMV (strain AD169) [1]; [3]) [µM] | EC50 (HCMV (strain AD169) [2]) [µM] | IC50 (HSV-1 helicase-primase) [nM] | other results |
| --- | --- | --- | --- | --- |
| CC(C)(C)NC(=O)N(CC(=O)Nc1ccc(-c2csc(N)n2)cc1)Cc1ccccc1 [Example 92] | 65 | 0.9 | 76 |  |
| [N-]=[N+]=Nc1ccc(C(=O)N(CC(=O)Nc2ccc(-c3csc(N)n3)cc2)Cc2ccncc2)cc1 [Example 78] |  |  | 1000 |  |
| CC(C)(C)OC(=O)N(CC(=O)Nc1ccc(-c2csc(N)n2)cc1)CC1CCCCC1 [Example 100] |  | 14 | 760 |  |
| Cc1ccccc1CN(CC(=O)Nc1ccc(-c2csc(N)n2)cc1)C(=O)c1ccncc1 [Example 102] | 18 | 11 | 190 |  |
| Nc1nc(-c2ccc(NC(=O)[C@@H]3CCCN3C(=O)c3ccccc3)cc2)cs1 [Example 14, N-{4-(2-Amino-4-thiazolyl)phenyl}1-benzoyl-2(S)-pyrrolidinecarboxamide] |  |  |  | melting point: 132 to 133 °C |
| C[C@@H](C1CCCCC1)N(CC(=O)Nc1ccc(-c2csc(N)n2)cc1)C(=O)OC(C)(C)C [Example 108] |  |  | 460 |  |
| Cc1cc(C)nc(SCC(=O)N(CC(=O)Nc2ccc(-c3csc(N)n3)cc2)Cc2ccccc2)n1 [Example 122] |  |  |  | EC50 (HCMV (strain AD169) [1]): 3.3 µM |
| Nc1nc(-c2ccc(NC(=O)CN(Cc3ccccc3)S(=O)(=O)N3CCOCC3)cc2)cs1 [Example 96] | 12 | 0.35 | 290 |  |
| CC(C)CN(CC(=O)Nc1ccc(-c2csc(N)n2)cc1)C(=O)OC(C)(C)C [Example 112] |  |  | 1800 |  |
| C[C@@H](c1ccccc1)N(CC(=O)Nc1ccc(-c2csc(N)n2)cc1)C(=O)Cc1ccccn1 [Example 135] | 38 |  | 780 |  |
| Nc1nc(-c2ccc(NC(=O)CN(CC3CCCCC3)C(=O)C3CCNCC3)cc2)cs1 [Example 62] |  |  |  | inhibition of HSV-1 helicase-primase (HSV-1 helicase-primase; at 50 μM): 29% inhi- bition at 50 μM |
| CN1CCC(C(=O)N(CC(=O)Nc2ccc(-c3csc(N)n3)cc2)CC2CCCCC2)CC1 [Example 138] |  | 31.6 | > 50000 |  |
| CC(C)COC(=O)N(CC(=O)Nc1ccc(-c2csc(N)n2)cc1)Cc1ccccc1 [Example 86] | 24 | 3.8 | 170 |  |
| Nc1nc(-c2ccc(NC(=O)CN(CC3CCCCC3)C(=O)CC3CCCC3)cc2)cs1 [Example 75] |  | 48 | 210 |  |
| Nc1nc(-c2ccc(NC(=O)CN(CC3CCCCC3)C(=O)c3ccncc3)cc2)cs1 [Example 57] | 15.8 | 2.6 | 3900 |  |
| CC(c1ccccc1)N(CC(=O)Nc1ccc(-c2csc(N)n2)cc1)C(=O)c1cccnc1 (stereo not drawn) [Example 134] |  |  | 260 | EC50 (HCMV (strain AD169) [1]): 18 µM |
| CC(C)(C)OC(=O)N1CCC(C(=O)N(CC(=O)Nc2ccc(-c3csc(N)n3)cc2)CC2CCCCC2)CC1 [Example 61] |  |  | 4400 |  |
| Nc1nc(-c2ccc(NC(=O)CN(Cc3ccccc3)C(=O)Cc3ccncc3)cc2)cs1 [Example 114] | 23 |  | 800 |  |
| Nc1nc(-c2ccc(NC(=O)CN(Cc3ccc(Cl)cc3)C(=O)c3ccncc3)cc2)cs1 [Example 55] |  | 11.9 | 570 |  |
| Nc1nc(-c2ccc(NC(=O)CN(Cc3ccccc3)C(=O)N3CCOCC3)cc2)cs1 [Example 95] | 90 | 57 | 140 |  |
| CN(C(=O)N(CC(=O)Nc1ccc(-c2csc(N)n2)cc1)Cc1ccccc1)C(C)(C)C [Example 94] | > 24 | > 8 | 26 |  |
| C[C@@H](c1ccccc1)N(CC(=O)Nc1ccc(-c2csc(N)n2)cc1)C(=O)NC(C)(C)C [Example 105] |  | 11 | 700 |  |
| Nc1nc(-c2ccc(NC(=O)CN(CCc3ccccc3)C(=O)C3CCCCC3)cc2)cs1 [Example 68] |  | > 5 | 180 |  |
| Nc1nc(-c2ccc(NC(=O)CN(Cc3ccc(F)cc3)C(=O)C3CCCCC3)cc2)cs1 [Example 83] |  | 8.1 | 42 |  |
| Nc1nc(-c2ccc(NC(=O)CN(Cc3ccccc3F)C(=O)c3ccncc3)cc2)cs1 [Example 118] | 60 |  | 47 |  |
| CC(C)CN(CC(=O)Nc1ccc(-c2csc(N)n2)cc1)C(=O)C1CCCCC1 [Example 81] |  | 14 | 480 |  |
| CC(c1ccccc1)N(CC(=O)Nc1ccc(-c2csc(N)n2)cc1)C(=O)Cc1ccccn1 (stereo not drawn) [Example 136] |  |  | 4200 | EC50 (HCMV (strain AD169) [1]): 31 µM |
| Cc1cccc(C)c1OCC(=O)N(CC(=O)Nc1ccc(-c2csc(N)n2)cc1)Cc1ccccc1 [Example 121] |  |  | 490 | EC50 (HCMV (strain AD169) [1]): > 31 µM |
| Nc1nc(-c2ccc(NC(=O)CN(Cc3ccc(Cl)cc3)C(=O)CC3CCCCC3)cc2)cs1 [Example 69] | 8 |  | 430 |  |
| CC(c1ccccc1)N(CC(=O)Nc1ccc(-c2csc(N)n2)cc1)C(=O)c1ccncc1 (stereo not drawn) [Example 137] |  |  | 980 | EC50 (HCMV (strain AD169) [1]): 49 µM |
